Tests used:
[1] = system: serotonin 5HT1A receptors; assay: Receptor autoradiography, competition for I125 DPAT; assay type: binding; conditions: tissue sections of the hamster brain
From the text: (§1) Vasopressin and serotonin are both critical neurotransmitters in the control of offensive aggression in male hamsters (Ferris et al., 1998). These two neurotransmitters also are implicated in the control of human aggression (Coccaro et al., 1998). Vasopressin facilitates aggressive behavior while serotonin inhibits aggression, in part, by inhibiting the activity of the vasopressin system. Blockade of vasopressin V1A receptors and stimulation of serotonin 5HT1A receptors in the anterior hypothalamus blocks offensive aggression (Ferris et al., 1999). […] To test this notion Mox was tested in a membrane binding assay for competition for the V1A receptor (Ferris et al., 1994) and in a receptor autoradiography assay for competition for the 5HT1A receptors (Ferris et al., 1999).

hamsters = assay: Olfactory discrimination: latency to find hidden sunflower seeds; assay type: in vivo, Syrian golden hamsters (Mesocricetus auratus); conditions: 50 μg/kg
Method: Sixteen animals were treated with vehicle or 50 μg/kg Mox and tested for olfactory discrimination by measuring their latency to find hidden sunflower seeds (FIG. 5). The injections were counterbalanced with each animal receiving each treatment. Prior to testing animals were fasted for 24 hrs. Ninety minutes after injection animals were briefly taken from their home cage while six sunflower seeds were buried under the bedding in one corner. Animals were placed back into their home cage and scored for the latency to find the seeds in a ten min observation period. […] In fact, not one of the sixteen animals consumed all of the seeds following saline as compared to all animals treated with Mox.
Six animals received an intracerebroventricular injection of vehicle or 1 mg/kg PPP and tested for olfactory discrimination by measuring their latency to find hidden sunflower seeds (FIG. 16). The injections were counterbalanced with each animal receiving each treatment. Prior to testing animals were fasted for 24 hrs. Sixty min. After injection animals were briefly taken from their home cage while six sunflower seeds were buried under the bedding in one corner. Animals were placed back into their home cage and scored for the latency to find the seeds in a five min. Observation period.

vasopressin V1A receptor = assay: Membrane binding assay, competition for I125 HO-LVA; conditions: 1 μM, hamster liver membrane preparation
From the text: as §1

[2] = system: Corticotropin Releasing Factor receptor; assay: NOVASCREEN CRF binding assay; conditions: 100 nM
Method: [table] Corticotropin releasing hormone (CRH or CRF as shown on the following page) is a critical neurohormone in the regulation of stress. Since Mox suppresses impulsivity, aggression, and anxiety while enhancing learning and memory it may be acting to reduce stress. For this reason, Mox was tested by NOVASCREEN in a CRF binding assay.

Structure (SMILES): CO[C@@]1(NC(=O)C(C(=O)O)c2ccc(O)cc2)C(=O)N2C(C(=O)O)=C(CSc3nnnn3C)CO[C@@H]21 (stereo partly drawn) [Mox, 7-β-[2-carboxy-2-(4-hydroxyphenyl)acetamido]-7α-methoxy-3-[[(1-methyl-1H-tetrazol-5-yl)thio]methyl]-1-oxa-1-dethia-3-cephem-4-carboxylic acid]
- reduction of specific binding of I125 DPAT [1]: ineffective
- time to consume all seeds (hamsters): less than five
- latency to find the seed (hamsters; 90 min, fasted 24 hrs): significantly (p<0.001) reduced
- displacement of I125 HO-LVA binding (vasopressin V1A receptor): did not significantly displace
- effect in the CRF binding assay [2]: no effect

Source: patent US7842683B2, “Neurotherapeutic compositions and method” (Revaax Pharmaceuticals, LLC, priority 1999, dated 2010)
